Measurements: patent US8318726B2, “Benzylidineanthracenone linked pyrrolobenzodiazepine hybrids useful as anticancer agents and process for the preparation thereof” (Council of Scientific & Industrial Research, priority 2010, dated 2012)
Read-outs that look alike come from different tables or passages of the source.

Experiments:
[1] = test system: duplex-form calf thymus DNA (CT-DNA); assay: Thermal denaturation studies with calf thymus DNA; type: binding; conditions: [PBD]:[DNA] molar ratio 1:5, CT-DNA 100 μM, ligand 20 μM, pH 7.00
Protocol: Compounds were subjected to thermal denaturation studies with duplex-form calf thymus DNA (CT-DNA) using an adaptation of a reported procedure. Working solutions in aqueous buffer (10 mM NaH2PO41Na2HPO4, 1 mM Na2EDTA, pH 7.00±0.01) containing CT-DNA (100 μm in phosphate) and the PBD (20 μm) were prepared by addition of concentrated PBD solutions in DMSO to obtain a fixed [PBD]/[DNA] molar ratio of 1:5. The DNA-PBD solutions were incubated at 37° C. for 0, 18, and 36 h prior to analysis. Samples were monitored at 260 nm using a Beckman DU-7400 spectrophotometer fitted with high performance temperature controller, and heating was applied at 1° C. min^−1 in the 40-90° C. range. DNA helix→coil transition temperatures (Tm) were obtained from the maxima in the d(A260)/dT derivative plots. Results are given as the mean±standard deviation from three determinations and are corrected for the effects of DMSO co-solvent using a linear correction term. Drug-induced alterations in DNA melting behaviour are given by: ΔTm=Tm(DNA+PBD)−Tm (DNA alone), where the Tm value for the PBD-free CT-DNA is 69.0±0.01.
For a 1:5 molar ratio of [PBD]/[DNA], where CT-DNA concentration=100 μM and ligand concentration=20 μM in aqueous sodium phosphate buffer [10 mM sodium phosphate+1 mM EDTA, pH 7.00±0.01]. The ΔTm for PBD hybrids 5b, 5c, 5d, 5h, 5m and 5r at a [PBD]:[DNA] molar ratio of 1:5 increased to a value of 7.5° C., 9.3° C., 8.9° C., 8.0° C., 7.1° C., and 8.4° C. after 18 h incubation respectively.

[2] = test system: prostate cancer cell lines (PC3); assay: In vitro cytotoxicity, SRB assay, prostate cancer PC-3; type: cell-based, human
Description: (§1) The C8-linked benzylidineanthracenone-PBD hybrids have been tested against eight human tumor cell lines derived from seven cancer types (breast, ovarian, colon, prostate, cervix, lung and oral cancer). For each compound, dose response curves for individual cell lines have been measured at a minimum of five concentrations at 10 fold dilutions. A protocol of 48 hrs continuous drug exposure has been used, and a sulforhodamine B (SRB) protein assay was used to estimate cell viability or growth. The results are expressed as percent of cell growth determined relative to that of untreated control cells. The GI50 values are the concentration for 50% cell growth inhibition (GI50) compared with the control has been calculated.

[3] = test system: ovarian cancer cell lines (A2780); assay: In vitro cytotoxicity, SRB assay, ovarian cancer A2780; type: cell-based, human
Description: as §1

[4] = test system: lung cancer cell lines (HoP62); assay: In vitro cytotoxicity, SRB assay, lung cancer Hop62; type: cell-based, human
Description: as §1

[5] = test system: oral cancer cell lines (KB); assay: In vitro cytotoxicity, SRB assay, oral cancer KB; type: cell-based, human
Description: as §1

[6] = test system: cervix cancer cell lines (SiHa); assay: In vitro cytotoxicity, SRB assay, cervix cancer SiHa; type: cell-based, human
Description: as §1

[7] = test system: colon cancer cell lines (Colo205); assay: In vitro cytotoxicity, SRB assay, colon cancer Colo205; type: cell-based, human
Description: as §1

[8] = test system: lung cancer cell lines (A549); assay: In vitro cytotoxicity, SRB assay, lung cancer A-549; type: cell-based, human
Description: as §1

[9] = test system: breast cancer cell lines (MCF7); assay: In vitro cytotoxicity, SRB assay, breast cancer MCF7; type: cell-based, human
Description: as §1

[10] = Homo sapiens, Prostate PC-3, 48 hrs continuous drug exposure, SRB, read-out: GI50
[11] = Homo sapiens, prostate cancer cell lines (PC3), exposure period of at least 48 hrs, read-out: GI50 (range for the group)
[12] = Homo sapiens, Ovarian A2780, 48 hrs continuous drug exposure, SRB, read-out: GI50
[13] = Homo sapiens, ovarian cancer cell lines (A2780), exposure period of at least 48 hrs, read-out: GI50 (range for the group)
[14] = Homo sapiens, HOP-62, Lung Hop62, 48 hrs continuous drug exposure, SRB, read-out: GI50
[15] = Homo sapiens, HOP-62, lung cancer cell lines (HoP62), exposure period of at least 48 hrs, read-out: GI50 (range for the group)
[16] = Homo sapiens, Oral KB, 48 hrs continuous drug exposure, SRB, read-out: GI50
[17] = Homo sapiens, oral cancer cell lines (KB), exposure period of at least 48 hrs, read-out: GI50 (range for the group)
[18] = Homo sapiens, COLO 205, Colon Colo205, 48 hrs continuous drug exposure, SRB, read-out: GI50
[19] = Homo sapiens, COLO 205, colon cancer cell lines (Colo205), exposure period of at least 48 hrs, read-out: GI50 (range for the group)
[20] = Homo sapiens, A549, Lung A-549, 48 hrs continuous drug exposure, SRB, read-out: GI50
[21] = Homo sapiens, lung cancer cell lines (A549), exposure period of at least 48 hrs, read-out: GI50 (range for the group)
[22] = Homo sapiens, Breast MCF7, 48 hrs continuous drug exposure, SRB, read-out: GI50
[23] = Homo sapiens, breast cancer cell lines (MCF7), exposure period of at least 48 hrs, read-out: GI50 (range for the group)
[24] = Homo sapiens, Cervix SiHa, 48 hrs continuous drug exposure, SRB, read-out: GI50
[25] = Homo sapiens, cervix cancer cell lines (SiHa), exposure period of at least 48 hrs, read-out: GI50 (range for the group)

Compound | ΔTm, drug-induced shift in DNA melting temperature ([1]; 0 h incubation at 37° C.) [°C] | ΔTm, drug-induced shift in DNA melting temperature ([1]; 18 h incubation at 37° C.) [°C] | GI50 [2, 10] [nM] | GI50 [2, 11] [nM] | GI50 [3, 12] [nM] | GI50 [3, 13] [nM] | GI50 [4, 14] [nM] | GI50 [4, 15] [nM] | GI50 [5, 16] [nM] | GI50 [5, 17] [nM] | GI50 [7, 18] [nM] | GI50 [7, 19] [nM] | GI50 [8, 20] [nM] | GI50 [8, 21] [nM] | GI50 [9, 22] [nM] | GI50 [9, 23] [nM] | GI50 [6, 24] [nM] | GI50 [6, 25] [nM] | further results
COc1cc(C=C2c3ccccc3C(=O)c3ccccc32)ccc1O [2a, 4-hydroxy-3-methoxybenzylidineanthracenone, reference compound] | 0.4 | 0.8 |  |  |  |  |  |  |  |  |  |  |  |  |  |  |  |  | 
COc1cc2c(cc1O)N=CC1CCCN1C2=O (centres unmarked) [DC-81, reference compound] | 0.3 | 0.7 |  |  |  |  |  |  |  |  |  |  |  |  |  |  |  |  | GI50 ([2]; Prostate PC-3, 48 hrs continuous drug exposure, SRB, read-out: GI50): 200 nM; GI50 ([3]; Ovarian A2780, 48 hrs continuous drug exposure, SRB, read-out: GI50): 150 nM; GI50 ([4]; Lung Hop62, 48 hrs continuous drug exposure, SRB, read-out: GI50): 150 nM; GI50 ([5]; Oral KB, 48 hrs continuous drug exposure, SRB, read-out: GI50): 200 nM; GI50 ([6]; Cervix SiHa, 48 hrs continuous drug exposure, SRB, read-out: GI50): 170 nM; GI50 ([7]; Colon Colo205, 48 hrs continuous drug exposure, SRB, read-out: GI50): 120 nM; GI50 ([8]; Lung A-549, 48 hrs continuous drug exposure, SRB, read-out: GI50): 380 nM; GI50 ([9]; Breast MCF7, 48 hrs continuous drug exposure, SRB, read-out: GI50): 2190 nM
COc1cc(C=C2c3ccccc3C(=O)c3ccccc32)ccc1OCCCCOc1cc2c(cc1OC)C(=O)N1CCC[C@H]1C=N2 [5c, 7-methoxy-8-(4-{2-methoxy-4-[(10-oxo-9,10-dihydro-9-anthracenyliden)methyl]phenoxy}butoxy)-(11aS)-1,2,3,11a-5H-pyrrolo[2,1-c][1,4]benzodiazepin-5-one] | 7.7 | 9.3 | 180 | 150 to 2200 | 150 | 148 to 168 | 180 | 170 to 260 | 200 | 180 to 2500 | 120 | 110 to 140 | 1800 | 155 to 1940 | 90 | 90 to 180 |  |  | 
COc1cc2c(cc1OCCCCOc1cccc(C=C3c4ccccc4C(=O)c4ccccc43)c1)N=C[C@@H]1CCCN1C2=O [5m, 7-methoxy-8-(4-{3-[(10-oxo-9,10-dihydro-9-anthracenyliden)methyl]phenoxy}butoxy)-(11aS)-1,2,3,11a-5H-pyrrolo[2,1-c][1,4]benzodiazepin-5-one] | 6.5 | 7.1 | 180 | 150 to 2200 | 160 | 148 to 168 | 230 | 170 to 260 | 2400 | 180 to 2500 | 140 | 110 to 140 | 1820 | 155 to 1940 | 170 | 90 to 180 | 2200 | 2200 to 31000 | 
COc1cc(C=C2c3ccccc3C(=O)c3ccccc32)ccc1OCCCOc1cc2c(cc1OC)C(=O)N1CCC[C@H]1C=N2 [5b, 7-methoxy-8-(3-{2-methoxy-4-[(10-oxo-9,10-dihydro-9-anthracenyliden)methyl]phenoxy}propoxy)-(11aS)-1,2,3,11a-5H-pyrrolo[2,1-c][1,4]benzodiazepin-5-one] | 6.1 | 7.5 | 180 | 150 to 2200 | 148 | 148 to 168 | 190 | 170 to 260 | 190 | 180 to 2500 | 110 | 110 to 140 | 1760 | 155 to 1940 | 140 | 90 to 180 | 2200 | 2200 to 31000 | 
COc1cc(C=C2c3ccccc3C(=O)c3ccccc32)ccc1OCCCCCOc1cc2c(cc1OC)C(=O)N1CCC[C@H]1C=N2 [5d, 7-methoxy-8-(5-{2-methoxy-4-[(10-oxo-9,10-dihydro-9-anthracenyliden)methyl]phenoxy}pentoxy)-(11aS)-1,2,3,11a-5H-pyrrolo[2,1-c][1,4]benzodiazepin-5-one] | 7.4 | 8.9 | 150 | 150 to 2200 | 150 | 148 to 168 | 170 | 170 to 260 | 180 | 180 to 2500 |  |  | 1940 | 155 to 1940 | 150 | 90 to 180 | 2200 | 2200 to 31000 | 
COc1cc2c(cc1OCCCCOc1ccc(C=C3c4ccccc4C(=O)c4ccccc43)cc1)N=C[C@@H]1CCCN1C2=O [5h, 7-methoxy-8-(4-{4-[(10-oxo-9,10-dihydro-9-anthracenyliden)methyl]phenoxy}butoxy)-(11aS)-1,2,3,11a-5H-pyrrolo[2,1-c][1,4]benzodiazepin-5-one] | 6.6 | 8.0 | 2200 | 150 to 2200 | 168 | 148 to 168 | 200 | 170 to 260 | 2400 | 180 to 2500 | 110 | 110 to 140 | 150 | 155 to 1940 | 160 | 90 to 180 | 2500 | 2200 to 31000 | 
COc1ccc(C=C2c3ccccc3C(=O)c3ccccc32)cc1OCCCCOc1cc2c(cc1OC)C(=O)N1CCC[C@H]1C=N2 [5r, 7-methoxy-8-(4-{2-methoxy-5-[(10-oxo-9,10-dihydro-9-anthracenyliden)methyl]phenoxy}butoxy)-(11aS)-1,2,3,11a-5H-pyrrolo[2,1-c][1,4]benzodiazepin-5-one] | 6.3 | 8.4 | 2100 | 150 to 2200 | 166 | 148 to 168 | 260 | 170 to 260 | 2500 | 180 to 2500 | 140 | 110 to 140 | 1900 | 155 to 1940 | 180 | 90 to 180 | 31000 | 2200 to 31000 | 
